Experimental data published in ChEMBL document CHEMBL3885861, “Open TG-GATES”.
“And” between values parts separate entries of the source, which are not always exact repeats. Equal entries are not always repeated.

Species on record: Rattus norvegicus
Assay: Open TG-GATES - Regimen: Single
Format: toxicity, organism-based, Sprague-Dawley
Set-up: regimen Single, gender Male, age 6 weeks
Conditions: in vivo, po, 0 mg/kg, route gavage, dose level Control; for APTT / Bas / Eos / Fbg / Hb / Ht / Lym / MCH / MCHC / MCV / Mono / Neu / PT / Plat / RBC / Ret / WBC: tissue Blood; for KIDNEY_L / KIDNEY_R / KIDNEY_TOTAL: tissue Kidney; for LIVER: tissue Liver; for A/G / ALP / ALT / AST / BUN / CRE / Ca / Cl / GLC / IP / K / LDH / Na / PL / RALB / TBIL / TC / TG / TP / gamma-GTP / DBIL: tissue Plasma

COc1ccc2c(c1)c(CC(=O)O)c(C)n2C(=O)c1ccc(Cl)cc1 [INDOMETHACIN]
TERMINAL_BW (3 h): 201 g and 226.5 g | APTT (3 h): 16.8 s and 19.8 s | Bas (3 h): 0% and 0.2% | Eos (3 h): 0.6% and 1% | Fbg (3 h): 201.6 mg/dL and 227.8 mg/dL | Hb (3 h): 13.6 g/dL and 13.9 g/dL | Ht (3 h): 40.8% and 38.7% | Lym (3 h): 80% and 80.4% | MCH (3 h): 21.9 pg and 22.5 pg | MCHC (3 h): 33.2% and 35.9% | MCV (3 h): 66 fL and 62.6 fL | Mono (3 h): 10.2% and 2.4% | Neu (3 h): 9.6% and 15% | PT (3 h): 12.8 s and 11.9 s | Plat (3 h): 109 x10_4/uL and 118.1 x10_4/uL | RBC (3 h): 618.8 x10_4/ul | Ret (3 h): 10.2% and 7.9% | WBC (3 h): 108.5 x10_2/uL and 100.3 x10_2/uL | KIDNEY_L (3 h): 0.9 g and 1 g | KIDNEY_R (3 h): 0.9 g and 1 g | KIDNEY_TOTAL (3 h): 1.8 g and 2 g | LIVER (3 h): 9.4 g and 10 g | A/G (3 h): 1.6 and 1.8 | ALP (3 h): 1191.4 IU/L and 1059 IU/L | ALT (3 h): 39 IU/L and 32.2 IU/L | AST (3 h): 69.6 IU/L and 71.8 IU/L | BUN (3 h): 12.2 mg/dL and 11.8 mg/dL | CRE (3 h): 0.5 mg/dL and 0.4 mg/dL | Ca (3 h): 10.6 mg/dL and 10.7 mg/dL | Cl (3 h): 105.6 meq/L and 103 meq/L | GLC (3 h): 194.4 mg/dL and 209.4 mg/dL | IP (3 h): 10 mg/dL and 9.2 mg/dL | K (3 h): 5.1 meq/L and 4.1 meq/L | LDH (3 h): 104.8 IU/L and 217.4 IU/L | Na (3 h): 137.8 meq/L and 141 meq/L | PL (3 h): 129.4 mg/dL and 135 mg/dL | RALB (3 h): 3.8 g/dL and 3.4 g/dL | TBIL (3 h): 0.3 mg/dL and 0.1 mg/dL | TC (3 h): 74.8 mg/dL and 73.8 mg/dL | TG (3 h): 56.2 mg/dL and 67.4 mg/dL | TP (3 h): 6.1 g/dL and 5.4 g/dL | gamma-GTP (3 h): 1.2 IU/L | TERMINAL_BW (6 h): 197.2 g and 224 g | APTT (6 h): 17.5 s and 19.1 s | Bas (6 h): 0% | Eos (6 h): 0.8% | Fbg (6 h): 209.2 mg/dL and 225.2 mg/dL | Hb (6 h): 13.6 g/dL and 13.8 g/dL | Ht (6 h): 41% and 38.1% | Lym (6 h): 78.2% and 80% | MCH (6 h): 21.9 pg and 22.3 pg | MCHC (6 h): 33.1% and 36.4% | MCV (6 h): 66.2 fL and 61.3 fL | Mono (6 h): 6.8% and 2.8% | Neu (6 h): 14.2% and 15% | PT (6 h): 12.7 s and 12.2 s | Plat (6 h): 104.7 x10_4/uL and 120.1 x10_4/uL | RBC (6 h): 619.4 x10_4/ul and 621.8 x10_4/ul | Ret (6 h): 9.3% and 7.9% | WBC (6 h): 111.4 x10_2/uL and 85.5 x10_2/uL | KIDNEY_L (6 h): 0.9 g | KIDNEY_R (6 h): 0.9 g | KIDNEY_TOTAL (6 h): 1.8 g and 1.9 g | LIVER (6 h): 8.4 g and 9.5 g | A/G (6 h): 1.7 and 1.6 | ALP (6 h): 1101.4 IU/L and 861.4 IU/L | ALT (6 h): 34.2 IU/L and 31.6 IU/L | AST (6 h): 68.4 IU/L and 67.8 IU/L | BUN (6 h): 11.6 mg/dL and 9.6 mg/dL | CRE (6 h): 0.5 mg/dL and 0.4 mg/dL | Ca (6 h): 10.1 mg/dL and 10.8 mg/dL | Cl (6 h): 106 meq/L and 102.8 meq/L | DBIL (6 h): 0.032 mg/dL and 0.078 mg/dL | GLC (6 h): 193.2 mg/dL and 193.8 mg/dL | IP (6 h): 9.8 mg/dL and 9.4 mg/dL | K (6 h): 4.8 meq/L and 4.1 meq/L | LDH (6 h): 77.2 IU/L and 197.4 IU/L | Na (6 h): 137.2 meq/L and 140.6 meq/L | PL (6 h): 119.2 mg/dL and 136.4 mg/dL | RALB (6 h): 3.8 g/dL and 3.4 g/dL | TBIL (6 h): 0.3 mg/dL and 0.1 mg/dL | TC (6 h): 69.2 mg/dL and 73.4 mg/dL | TG (6 h): 39 mg/dL and 70.6 mg/dL | TP (6 h): 6 g/dL and 5.5 g/dL | gamma-GTP (6 h): 1.8 IU/L and 1 IU/L | TERMINAL_BW (9 h): 196.5 g and 222.5 g | APTT (9 h): 16.7 s and 17.7 s | Bas (9 h): 0% | Eos (9 h): 0.4% and 1% | Fbg (9 h): 211.2 mg/dL and 229.6 mg/dL | Hb (9 h): 13.2 g/dL and 13.5 g/dL | Ht (9 h): 40% and 36.8% | Lym (9 h): 82.8% and 78.6% | MCH (9 h): 21.7 pg and 22.4 pg | MCHC (9 h): 33.1% and 36.7% | MCV (9 h): 65.6 fL and 61.1 fL | Mono (9 h): 6.4% and 2.8% | Neu (9 h): 10.2% and 16.6% | PT (9 h): 12.5 s | Plat (9 h): 100.8 x10_4/uL and 126.3 x10_4/uL | RBC (9 h): 610 x10_4/ul and 603.4 x10_4/ul | Ret (9 h): 10.2% and 8.2% | WBC (9 h): 121.1 x10_2/uL and 84 x10_2/uL | KIDNEY_L (9 h): 0.9 g and 1 g | KIDNEY_R (9 h): 0.9 g and 1 g | KIDNEY_TOTAL (9 h): 1.9 g | LIVER (9 h): 8.1 g and 8.7 g | A/G (9 h): 2.5 and 1.7 | ALP (9 h): 901.4 IU/L and 851.8 IU/L | ALT (9 h): 33.8 IU/L and 28.6 IU/L | AST (9 h): 68.8 IU/L and 64.8 IU/L | BUN (9 h): 12.4 mg/dL and 9.6 mg/dL | CRE (9 h): 0.5 mg/dL and 0.4 mg/dL | Ca (9 h): 10.2 mg/dL and 10.5 mg/dL | Cl (9 h): 107 meq/L and 104.2 meq/L | DBIL (9 h): 0.042 mg/dL and 0.072 mg/dL | GLC (9 h): 191 mg/dL and 209 mg/dL | IP (9 h): 10.3 mg/dL | K (9 h): 5.1 meq/L and 3.8 meq/L | LDH (9 h): 98.8 IU/L and 189 IU/L | Na (9 h): 138 meq/L and 142.4 meq/L | PL (9 h): 137.6 mg/dL and 129.2 mg/dL | RALB (9 h): 3.9 g/dL and 3.5 g/dL | TC (9 h): 81 mg/dL and 72.4 mg/dL | TG (9 h): 43.4 mg/dL and 45.8 mg/dL | TP (9 h): 5.4 g/dL and 5.6 g/dL | gamma-GTP (9 h): 2 IU/L and 1 IU/L | TERMINAL_BW (24 h): 215.4 g and 240.9 g | APTT (24 h): 16.7 s and 18.2 s | Bas (24 h): 0% and 0.8% | Eos (24 h): 1% and 0.6% | Fbg (24 h): 218.4 mg/dL and 222.8 mg/dL | Hb (24 h): 13.5 g/dL and 13.2 g/dL | Ht (24 h): 41.1% and 38.2% | Lym (24 h): 79% and 79.8% | MCH (24 h): 21.6 pg and 21.5 pg | MCHC (24 h): 33% and 34.4% | MCV (24 h): 65.5 fL and 62.4 fL | Mono (24 h): 10.4% and 2.6% | Neu (24 h): 9.4% and 15.6% | PT (24 h): 12.1 s and 11.5 s | Plat (24 h): 95.4 x10_4/uL and 128.4 x10_4/uL | RBC (24 h): 627.4 x10_4/ul and 612.4 x10_4/ul | Ret (24 h): 9.1% and 6.5% | WBC (24 h): 106.5 x10_2/uL and 112.4 x10_2/uL | KIDNEY_L (24 h): 1 g | KIDNEY_R (24 h): 1 g | KIDNEY_TOTAL (24 h): 2 g
